Molecular target: KAT2A (Homo sapiens (Human), UniProt Q92830)
Assay: KAT2A acetyltransferase biochemical assay (RapidFire mass spectrometry, AcCoA to CoA)
Conditions: KAT2A Ki at 1 μM AcCoA, 5 μM H3 1-21 peptide, 0.5 nM KAT2A, 90-minute reaction
Protocol: • A) Compound preparation • 1) Prepare 10 mM stock solutions in 100% DMSO from solid material. • 2) Serial dilute 10 mM, 1 mM, 0.1 or 0.01 mM compound stocks 3-fold in 100% DMSO for 11-point dose response. • B) Reagent preparation • 1) Prepare 1×assay buffer containing 40 mM bis tris propane pH 8.0, 10 mM NaCl, 0.5 mM EDTA, and 0.002% Tween-20. • 2) Dilute Histone peptide (CPC Scientific) and KAT enzyme together in assay buffer to 1.25×. • 3) Dilute AcCoA (Sigma) in assay buffer to 5×. • C) Enzyme reaction • 1) Final reaction conditions for each KAT assay in a 100ul assay reaction volume: • i) KAT2A 0.5 nM, 1 uM AcCoA, 5 uM H3 1-21 peptide, 90-minute reaction • ii) KAT2B 0.5 nM, 1 uM AcCoA, 5 uM H3 1-21 peptide, 90-minute reaction • 2) Add 2 ul of diluted compound series to the assay plate (96-well round-bottom polypropylene plates) or 2 ul of DMSO for control wells. • 3) Add 11 μL of 10% formic acid to 100% effect (HPE) control wells. • 4) Add 80 ul of 1.25× Histone peptide/KAT mix to the assay plate via Multidrop Combi (ThermoFisher). Incubate 15 min at room temperature. • 5) Add 20 ul of 5× AcCoA to the assay plate via Multidrop Combi. • 6) Stop the reaction after the indicated time with the addition of 11 ul of 10% formic acid via Multidrop Combi. • 7) Each reaction was analyzed using Rapid Fire mass spectrometry platform.
KAT enzymes were expressed using a baculovirus expression system and purified at Pfizer, La Jolla. […] Acetyl coenzyme A was purchased from Sigma-Aldrich (St. Louis, MO). All other biochemical reagents were purchased from Sigma-Aldrich or ThermoFisher Scientific (Waltham, MA).
KAT assays were performed at room temperature in assay buffer containing 1 μM AcCoA, 5 μM histone peptide, 40 mM bis tris propane pH 8.0, 10 mM NaCl, 0.5 mM EDTA 0.002% Tween-20. 80 ul of 1.25× Histone peptide/enzyme mix was added to a 96-well round-bottom polypropylene assay plate containing 2 ul of serially diluted test compound in 100% dimethyl sulfoxide (DMSO). To start the reaction, 20 ul of 5× AcCoA solution was added to the assay plate. KAT assays were terminated after 90 minutes with the addition of 11 ul of 10% formic acid. All assays used histone H3 (1-21) peptide. The final enzyme concentration for each KAT was as follows: KAT2A, 0.5 nM; KAT2B, 0.5 nM. […] Each reaction was analyzed using Rapid Fire mass spectrometry platform. This methodology leverages an Agilent 6495 triple quadrupole (QQQ) mass spectrometer coupled to a RapidFire model 365 to specifically capture and measure KAT2 acetyltransferase activity, converting AcCoA (substrate) to CoA (product).
Area under the curve (AUC) for both substrate and product peaks was determined for KAT2 at M.W. 809.6 [Substrate+H]+ and 767.3 [Product+H]+ with a +/−1 Da tolerance, respectively. Acetyltransferase activity (% of DMSO control) was calculated by: ((AUCProduct/AUCsubstrate)-AUCHPE)/(AUCZPE-AUCHPE))*100. Ki values were determined by fitting the % acetyltransferase activity at each inhibitor concentration to the Morrison equation for tightbinding competitive inhibitors using Pfizer proprietary curve fitting software.
To determine the inhibition of KAT enzymatic activity by test compounds, assay reactions were conducted in a volume of 100 μL in 96-well round-bottom polypropylene assay plate. The reactions were performed in assay buffer (40 mM bis tris propane, pH 8, 10 mM NaCl, 0.5 mM EDTA, 0.002% Tween-20).

Chain of KAT2A (Q92830 whole entry): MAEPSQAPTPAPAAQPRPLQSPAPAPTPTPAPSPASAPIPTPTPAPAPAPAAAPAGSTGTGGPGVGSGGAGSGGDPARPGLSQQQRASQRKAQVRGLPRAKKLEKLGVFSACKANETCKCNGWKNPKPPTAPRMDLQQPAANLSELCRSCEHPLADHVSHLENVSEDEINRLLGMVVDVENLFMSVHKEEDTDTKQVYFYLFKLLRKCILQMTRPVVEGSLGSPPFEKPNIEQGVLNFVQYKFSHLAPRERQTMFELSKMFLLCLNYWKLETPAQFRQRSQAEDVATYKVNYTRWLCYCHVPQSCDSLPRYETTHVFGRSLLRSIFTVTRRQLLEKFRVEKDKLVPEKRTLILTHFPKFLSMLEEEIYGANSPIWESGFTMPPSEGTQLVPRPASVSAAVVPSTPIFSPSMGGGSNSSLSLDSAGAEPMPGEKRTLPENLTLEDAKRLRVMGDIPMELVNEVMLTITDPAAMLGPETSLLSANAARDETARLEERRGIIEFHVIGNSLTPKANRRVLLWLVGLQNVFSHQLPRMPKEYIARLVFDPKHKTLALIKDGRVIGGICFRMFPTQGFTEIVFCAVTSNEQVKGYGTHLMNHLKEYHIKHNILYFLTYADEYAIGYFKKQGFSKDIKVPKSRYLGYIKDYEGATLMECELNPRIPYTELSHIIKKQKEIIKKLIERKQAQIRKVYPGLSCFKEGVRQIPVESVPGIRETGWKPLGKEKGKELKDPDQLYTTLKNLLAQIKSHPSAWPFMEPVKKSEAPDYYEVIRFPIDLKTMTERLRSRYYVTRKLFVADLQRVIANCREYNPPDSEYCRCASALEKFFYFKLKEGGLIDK

Row | SMILES | Ki [nM]
1 | CC(C)S(=O)(=O)NC(=O)C(C)(C)c1ccc(O[C@@H]2CC[C@@H](NC(=O)[C@@]3(F)CNC4(CCC4)C3)C2)c(-c2cccc(F)c2C2CCC2)c1 (single isomer, unassigned) [Example B3] | 236
2 | CS(=O)(=O)NC(=O)Cc1ccc(O[C@@H]2CC[C@@H](NC(=O)C3(F)CNC4(CCCC4)C3)C2)c(-c2cccc(F)c2C2CCC2)c1 (single isomer, unassigned) [Example B15] | 660
3 | CS(=O)(=O)NC(=O)Cc1ccc(O[C@@H]2CC[C@@H](NC(=O)[C@]3(F)CNC4(CCC4)C3)C2)c(-c2cccc(F)c2C2CCC2)c1 (single isomer, unassigned) [Example C39] | 20.4

Same assay, conditions: read-out: KAT2A Ki at 1 μM AcCoA, 5 μM H3 1-21 peptide, 0.5 nM KAT2A, 90-minute reaction

Row | SMILES | Ki [nM]
4 | CC(C)c1ccccc1-c1c(CC(=O)O)cccc1O[C@@H]1CC[C@@H](NC(=O)[C@@H]2CC(C)(C)CN2C)C1 (atropisomer, axis not shown) [Example H5, [(1ψ)-2′-(propan-2-yl)-6-({(1R,3R)-3-[(1,4,4-trimethyl-L-prolyl)amino]cyclopentyl}oxy)[1,1′-biphenyl]-2-yl]acetic acid] | 9040
5 | CC1(C)C[C@@H](C(=O)N[C@@H]2CC[C@@H](Oc3cccc(C(=O)O)c3-c3cccc(F)c3C3CCC3)C2)CN1 (atropisomer, axis not shown) [Example H8, (1ψ)-2′-cyclobutyl-6-{[(1R,3R)-3-{[(3ξ)-5,5-dimethylpyrrolidine-3-carbonyl]amino}cyclopentyl]oxy}-3′-fluoro[1,1′-biphenyl]-2-carboxylic acid] | 348
6 | CC1(C)C[C@@H](C(=O)N[C@@H]2CC[C@@H](Oc3cccc(C(=O)O)c3-c3cccc(F)c3C3CCC3)C2)CN1 (atropisomer, axis not shown) [Example H10] | 26400
7 | CC1(C)C[C@H](C(=O)N[C@@H]2CC[C@@H](Oc3cccc(C(=O)O)c3-c3cccc(F)c3C3CCC3)C2)CN1 (atropisomer, axis not shown) [Example H11, (1ψ)-2′-cyclobutyl-6-{[(1R,3R)-3-{[(3ξ)-5,5-dimethylpyrrolidine-3-carbonyl]amino}cyclopentyl]oxy}-3′-fluoro[1,1′-biphenyl]-2-carboxylic acid] | 1100
8 | CN1CC(C)(C)C[C@H]1C(=O)N[C@@H]1CC[C@@H](Oc2cccc(C(=O)NS(C)(=O)=O)c2-c2cccc(F)c2C2CCC2)C1 (atropisomer, axis not shown) [Example I2, N-[(1R,3R)-3-({(1ψ)-2′-cyclobutyl-3′-fluoro-6-[(methanesulfonyl)carbamoyl][1,1′-biphenyl]-2-yl}oxy)cyclopentyl]-1,4,4-trimethyl-L-prolinamide] | 1970
9 | CN1CC(C)(C)C[C@H]1C(=O)N[C@@H]1CC[C@@H](Oc2cccc(CC(=O)NS(N)(=O)=O)c2-c2ccccc2C2CCC2)C1 (atropisomer, axis not shown) [Example I6, N-[(1R,3R)-3-({(1ψ)-2′-cyclobutyl-6-[2-oxo-2-(sulfamoylamino)ethyl][1,1′-biphenyl]-2-yl}oxy)cyclopentyl]-1,4,4-trimethyl-L-prolinamide] | 387
10 | CN1CC2(CCCC2)C[C@@H]1C(=O)N[C@@H]1CC[C@@H](Oc2cccc(C(=O)NS(C)(=O)=O)c2-c2cccc(F)c2C2CCC2)C1 (atropisomer, axis not shown) [Example I8, (3ξ)-N-[(1R,3R)-3-({(1ψ)-2′-cyclobutyl-3′-fluoro-6-[(methanesulfonyl)carbamoyl][1,1′-biphenyl]-2-yl}oxy)cyclopentyl]-2-methyl-2-azaspiro[4.4]nonane-3-carboxamide] | 1360
11 | CN1CC2(CCCC2)C[C@H]1C(=O)N[C@@H]1CC[C@@H](Oc2cccc(C(=O)NS(C)(=O)=O)c2-c2cccc(F)c2C2CCC2)C1 (atropisomer, axis not shown) [Example I9, (3ξ)-N-[(1R,3R)-3-({(1ψ)-2′-cyclobutyl-3′-fluoro-6-[(methanesulfonyl)carbamoyl][1,1′-biphenyl]-2-yl}oxy)cyclopentyl]-2-methyl-2-azaspiro[4.4]nonane-3-carboxamide] | 411
12 | O=C(O)Cc1ccc(O[C@@H]2CC[C@@H](NC(=O)[C@]3(F)CNC4(CCC4)C3)C2)c(-c2cccc(F)c2C2CCC2)c1 (single isomer, unassigned) [Example A8] | > 400
13 | C[C@H](C(=O)O)c1ccc(O[C@@H]2CC[C@@H](NC(=O)[C@@]3(F)CNC4(CCC4)C3)C2)c(-c2cccc(F)c2C2CCC2)c1 (single isomer, unassigned) [Example A17] | > 1000
14 | C[C@H](C(=O)O)c1ccc(O[C@@H]2CC[C@@H](NC(=O)[C@@]3(F)CNC4(CCC4)C3)C2)c(-c2cccc(F)c2C2CCC2)c1 (single isomer, unassigned) [Example A18] | 751
15 | CC1(C)CNC[C@](F)(C(=O)N[C@@H]2CC[C@@H](Oc3ccc(CC(=O)O)cc3-c3cccc(F)c3C3CCC3)C2)C1 (single isomer, unassigned) [Example A24] | 15.4
16 | CC(C)(C(=O)NS(=O)(=O)N1CC(F)(F)C1)c1ccc(O[C@@H]2CC[C@@H](NC(=O)[C@]3(F)CNC4(CCC4)C3)C2)c(-c2cccc(F)c2C2CCC2)c1 (single isomer, unassigned) [Example B9] | 209
17 | CC(C)(C(=O)NS(=O)(=O)C1CC1)c1ccc(O[C@@H]2CC[C@@H](NC(=O)[C@]3(F)CNC4(CCC4)C3)C2)c(-c2cccc(F)c2C2CCC2)c1 (single isomer, unassigned) [Example B11] | 517
18 | CCS(=O)(=O)NC(=O)C(C)(C)c1ccc(O[C@@H]2CC[C@@H](NC(=O)[C@@]3(F)CNC4(CCCC4)C3)C2)c(-c2cccc(F)c2C2CCC2)c1 (single isomer, unassigned) [Example B19] | 34.7
19 | CCS(=O)(=O)NC(=O)C(C)(C)c1ccc(O[C@@H]2CC[C@@H](NC(=O)[C@@]3(F)CNCC(C)(C)C3)C2)c(-c2cccc(F)c2C2CCC2)c1 (single isomer, unassigned) [Example B21] | 81.7
20 | CC(C)S(=O)(=O)NC(=O)C(C)(C)c1ccc(O[C@@H]2CC[C@@H](NC(=O)[C@@]3(F)CNC4(CCCC4)C3)C2)c(-c2cccc(F)c2C2CCC2)c1 (single isomer, unassigned) [Example B23] | > 1000

Row | SMILES | Ki [nM]
21 | CC(C)(C(=O)NS(=O)(=O)C1CC1)c1ccc(O[C@@H]2CC[C@@H](NC(=O)[C@@]3(F)CNC4(CCCC4)C3)C2)c(-c2cccc(F)c2C2CCC2)c1 (single isomer, unassigned) [Example B25] | 72.8
22 | CC1(C)CNC[C@](F)(C(=O)N[C@@H]2CC[C@@H](Oc3ccc(C(C)(C)C(=O)NS(=O)(=O)C4CC4)cc3-c3cccc(F)c3C3CCC3)C2)C1 (single isomer, unassigned) [Example B27] | 103
23 | CC(C)S(=O)(=O)NC(=O)C(C)(C)c1ccc(O[C@@H]2CC[C@@H](NC(=O)[C@@]3(F)CNCC(C)(C)C3)C2)c(-c2cccc(F)c2C2CCC2)c1 (single isomer, unassigned) [Example B29] | 221
24 | CC(C)(C(=O)NS(=O)(=O)C1(C)CC1)c1ccc(O[C@@H]2CC[C@@H](NC(=O)[C@@]3(F)CNC4(CCC4)C3)C2)c(-c2cccc(F)c2C2CCC2)c1 (single isomer, unassigned) [Example B33] | 27.6
25 | CCc1c(F)cccc1-c1cc(C(C)(C)C(=O)NS(C)(=O)=O)ccc1O[C@@H]1CC[C@@H](NC(=O)[C@@]2(F)CNC3(CCCC3)C2)C1 (single isomer, unassigned) [Example C26] | 338
26 | CCc1c(F)cccc1-c1cc(C(C)(C)C(=O)NS(=O)(=O)C(C)C)ccc1O[C@@H]1CC[C@@H](NC(=O)[C@@]2(F)CNC3(CCCC3)C2)C1 (single isomer, unassigned) [Example C28] | 302
27 | O=C(Cc1ccc(O[C@@H]2CC[C@@H](NC(=O)[C@@]3(F)CNC4(CCC4)C3)C2)c(-c2cccc(F)c2C2CCC2)c1)NS(=O)(=O)C1CC1 (single isomer, unassigned) [Example C30] | 238
28 | CC1(C)CNC[C@](F)(C(=O)N[C@@H]2CC[C@@H](Oc3ccc(C(C)(C)C(=O)NS(=O)(=O)C4(C)CC4)cc3-c3cccc(F)c3C3CCC3)C2)C1 (single isomer, unassigned) [Example C34] | 321
29 | CC1(C)CNC[C@](F)(C(=O)N[C@@H]2CC[C@@H](Oc3ccc(C(C)(C)C(=O)NS(C)(=O)=O)cc3-c3cccc(F)c3C3CCC3)C2)C1 (single isomer, unassigned) [Example C36] | 118
30 | CC(C)c1c(F)cccc1-c1cc(C(C)(C)C(=O)NS(=O)(=O)C2(C)CC2)ccc1O[C@@H]1CC[C@@H](NC(=O)[C@@]2(F)CNC3(CCC3)C2)C1 (single isomer, unassigned) [Example C42] | > 99.9
31 | CC(C)S(=O)(=O)NC(=O)C(C)(C)c1ccc(O[C@@H]2CC[C@@H](NC(=O)[C@]3(F)CNC4(CCC4)C3)C2)c(-c2ccccc2C2CCC2)c1 (single isomer, unassigned) [Example C49] | > 99.9
32 | CC(C)c1ccccc1-c1cc(CC(=O)NS(=O)(=O)C2(C)CC2)ccc1O[C@@H]1CC[C@@H](NC(=O)[C@@]2(F)CNC3(CCCC3)C2)C1 (single isomer, unassigned) [Example C62] | > 99.9
33 | CCS(=O)(=O)NC(=O)Cc1ccc(O[C@@H]2CC[C@@H](NC(=O)[C@@]3(F)CNC4(CCCC4)C3)C2)c(-c2ccccc2C(C)C)c1 (single isomer, unassigned) [Example C64] | > 99.9
34 | CCc1c(F)cccc1-c1cc(CC(=O)NS(=O)(=O)C(C)C)ccc1O[C@@H]1CC[C@@H](NC(=O)[C@@]2(F)CNCC(C)(C)C2)C1 (single isomer, unassigned) [Example C66] | 11.8
35 | CC1(S(=O)(=O)NC(=O)Cc2ccc(O[C@@H]3CC[C@@H](NC(=O)[C@@]4(F)CNC5(CCCC5)C4)C3)c(-c3cccc(F)c3C3CCC3)c2)CC1 (single isomer, unassigned) [Example C68] | 13.2
36 | CCc1c(F)cccc1-c1cc([C@@H](C)C(=O)NS(=O)(=O)C2(C)CC2)ccc1O[C@@H]1CC[C@@H](NC(=O)[C@@]2(F)CNC3(CCCC3)C2)C1 (single isomer, unassigned) [Example C84] | > 99.9
37 | CCc1c(F)cccc1-c1cc([C@@H](C)C(=O)NS(=O)(=O)C2(C)CC2)ccc1O[C@@H]1CC[C@@H](NC(=O)[C@@]2(F)CNC3(CCCC3)C2)C1 (single isomer, unassigned) [Example C86] | > 99.9
